Measurements: BindingDB's records for doi:10.1021/jm960395q (Shionogi, 1996)

How the values were obtained:
Phospholipase A2 [1] = molecular target: T1, Phospholipase A2 (Homo sapiens, UniProt P04054); assay: Inhibition of recombinant human secretory Phospholipase A2 (s-PLA2)
Phospholipase A2 [2] = molecular target: T1, Phospholipase A2; assay: Inhibition of recombinant human secretory phospholipase A2 (sPLA2), chromogenic screening assay.
[3] = Inhibitory activity against recombinant human secretory phospholipase A2 (s-PLA2) by phosphatidylcholine/deoxycholate assay (PC/DOC).

T1 sequence (P04054 whole entry): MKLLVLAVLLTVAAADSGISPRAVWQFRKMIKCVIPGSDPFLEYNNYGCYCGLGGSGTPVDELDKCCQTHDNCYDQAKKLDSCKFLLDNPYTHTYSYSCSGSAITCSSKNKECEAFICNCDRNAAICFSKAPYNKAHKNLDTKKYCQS

IC50 (Phospholipase A2 [1]) | IC50 (Phospholipase A2 [2]) | IC50 [3] | SMILES
55 nM | – | – | CCc1c(C(=O)C(N)=O)c2c(OCc3ccc4ccccc4n3)cccn2c1Cc1ccccc1-c1ccccc1 [2-[3-Biphenyl-2-ylmethyl-2-ethyl-8-(quinolin-2-ylmethoxy)-indolizin-1-yl]-2-oxo-acetamide]
15000 nM | – | – | COC(=O)CCCOC1=CC=CN2C1=C(CC(N)=O)C(C)C2Cc1ccccc1 (stereo unspecified) [4-(3-Benzyl-1-carbamoylmethyl-2-methyl-2,3-dihydro-indolizin-8-yloxy)-butyric acid methyl ester]
910 nM | – | – | CC1C(CC(N)=O)=C2C(OCCCC(=O)O)=CC=CN2/C1=C\c1ccccc1 (stereo unspecified) [4-{1-Carbamoylmethyl-2-methyl-3-[1-phenyl-meth-(Z)-ylidene]-2,3-dihydro-indolizin-8-yloxy}-butyric acid]
12000 nM | – | – | CC1C(CC(N)=O)=C2C(OCC(=O)O)=CC=CN2C1Cc1ccccc1 (stereo unspecified) [(3-Benzyl-1-carbamoylmethyl-2-methyl-2,3-dihydro-indolizin-8-yloxy)-acetic acid]
– | 25 nM | 20 nM | CCCCC[C@H]1CCCC(Cc2c(CC)c(C(=O)C(N)=O)c3c(OCC(=O)O)cccn23)C1 (stereo partly drawn) [[1-Aminooxalyl-2-ethyl-3-((S)-3-pentyl-cyclohexylmethyl)-indolizin-8-yloxy]-acetic acid]
– | 6 nM | 1.3 nM | CCc1c(C(=O)C(N)=O)c2c(OCC(=O)O)cccn2c1Cc1ccccc1Cc1ccccc1 [[1-Aminooxalyl-3-(2-benzyl-benzyl)-2-ethyl-indolizin-8-yloxy]-acetic acid]
– | 6 nM | 3 nM | CCc1c(C(=O)C(N)=O)c2c(OCC(=O)O)cccn2c1Cc1cccc(Cl)c1 [[1-Aminooxalyl-3-(3-chloro-benzyl)-2-ethyl-indolizin-8-yloxy]-acetic acid]
– | 11 nM | 5 nM | CCCCc1ccc(Cc2c(CC)c(C(=O)C(N)=O)c3c(OCC(=O)O)cccn23)cc1 [[1-Aminooxalyl-3-(4-butyl-benzyl)-2-ethyl-indolizin-8-yloxy]-acetic acid]
– | 15 nM | 52 nM | CCc1c(CC(N)=O)c2c(OCC(=O)O)cccn2c1Cc1cccc(Cl)c1 [[1-Carbamoylmethyl-3-(3-chloro-benzyl)-2-ethyl-indolizin-8-yloxy]-acetic acid]
420 nM | – | – | CC1C(C(N)=O)=C2C(OCC(=O)O)=CC=CN2/C1=C\c1ccccc1 (stereo unspecified) [{1-Carbamoyl-2-methyl-3-[1-phenyl-meth-(Z)-ylidene]-2,3-dihydro-indolizin-8-yloxy}-acetic acid]
240 nM | – | – | CCC1C(CC(N)=O)=C2C(OCC(=O)O)=CC=CN2/C1=C\c1cccc(C(F)(F)F)c1 (stereo unspecified) [{1-Carbamoylmethyl-2-ethyl-3-[1-(3-trifluoromethyl-phenyl)-meth-(Z)-ylidene]-2,3-dihydro-indolizin-8-yloxy}-acetic acid]
170 nM | – | – | CCC1C(CC(N)=O)=C2C(OCC(=O)O)=CC=CN2/C1=C\c1ccc2ccccc2c1 (stereo unspecified) [{1-Carbamoylmethyl-2-ethyl-3-[1-naphthalen-2-yl-meth-(Z)-ylidene]-2,3-dihydro-indolizin-8-yloxy}-acetic acid]
160 nM | – | – | CCC1C(CC(N)=O)=C2C(OCC(=O)O)=CC=CN2/C1=C\c1ccccc1 (stereo unspecified) [{1-Carbamoylmethyl-2-ethyl-3-[1-phenyl-meth-(Z)-ylidene]-2,3-dihydro-indolizin-8-yloxy}-acetic acid]
67 nM | – | – | CCC1C(CC(N)=O)=C2C(OCC(=O)O)=CC=CN2/C1=C\c1cccc(Cl)c1Cl (stereo unspecified) [{1-Carbamoylmethyl-3-[1-(2,3-dichloro-phenyl)-meth-(Z)-ylidene]-2-ethyl-2,3-dihydro-indolizin-8-yloxy}-acetic acid]
200 nM | – | – | CCC1C(CC(N)=O)=C2C(OCC(=O)O)=CC=CN2/C1=C\c1cccc(Cl)c1 (stereo unspecified) [{1-Carbamoylmethyl-3-[1-(3-chloro-phenyl)-meth-(Z)-ylidene]-2-ethyl-2,3-dihydro-indolizin-8-yloxy}-acetic acid]
400 nM | – | – | CCC1C(C(N)=O)=C2C(OCC(=O)O)=CC=CN2/C1=C\c1ccccc1Cc1ccccc1 (stereo unspecified) [{3-[1-(2-Benzyl-phenyl)-meth-(Z)-ylidene]-1-carbamoyl-2-ethyl-2,3-dihydro-indolizin-8-yloxy}-acetic acid]
